Data set [1] has as its system Plasmodium falciparum. Briefly: Antimalarial activity against CQ-sensitive Plasmodium falciparum 3D7 assessed as parasite growth inhibition incubated for 48 hrs by SYBR Green I dye based fluorescence assay. The format is functional, organism-based. As to conditions: 3D7, 48 h.
The nature of data set [2]: (§1) Cytotoxicity against Chinese hamster V79 cells measured after 24 hrs by MTT assay. Type of data set: cell-based, Cricetulus griseus. The conditions noted are these: V79 cells, read-out: LD50. For orientation: Tetrazolium assays rely on reduction of a dye to a coloured formazan, in cell work by metabolically active cells.
Data set [3] is described as follows: Selectivity index, ratio of LD50 for cytotoxicity against Chinese hamster V79 cells to IC50 for antimalarial activity against CQ-sensitive Plasmodium falciparum 3D7. Type of data set: toxicity, cell-based. The conditions noted are these: V79 cells versus Plasmodium falciparum 3D7, read-out: Ratio LD50/IC50.
Data set [4] is described as follows: Cytotoxicity against human THP-1 cells assessed as reduction in cell viability measured after 72 hrs by MTT assay. Type of data set: cell-based.
For data set [5], the system named is Trypanosoma brucei. Briefly: Antitrypanosomal activity against bloodstream form of Trypanosoma brucei Lister 427 assessed as parasite growth inhibition at 10 uM incubated for 72 hrs by resazurin staining based assay. The format is functional, organism-based. Background: Resazurin is reduced to fluorescent resorufin, in cell work by metabolically active cells.

Data set [6] has as its system Leishmania infantum. The experiment in a line: Antileishmanial activity against axenic amastigote stage of Leishmania infantum infected in THP-1 cells assessed as reduction in parasite growth at 10 uM incubated for 72 hrs by luminescence analysis. Type of data set: functional, organism-based.
The nature of data set [7]: Hemolytic activity against human erythrocytes at 0.04 to 10 uM incubated for 1 hr by microplate reader assay. Type of data set: ADME, tissue-based, Erythrocyte. The conditions noted are these: dose 0.04-10 µM, read-out: Activity.
The nature of data set [8]: Hemolytic activity against human erythrocytes at <=10 uM incubated for 1 hr by microplate reader assay. The format is ADME, tissue-based. The conditions noted are these: erythrocyte.
Data set [9] concerns Hemozoin. The experiment in a line: Inhibition of Beta-hematin formation at 12 to 48 uM after 24 hrs by microplate reader assay. The conditions noted are these: dose 12-48 µM.
The subject of a further data set is V79. The description is as §1. As to conditions: v79, 24 h. The format is cell-based, Cricetulus griseus.
In data set [10] the test system is Trypanosoma brucei. Briefly: Antitrypanosomal activity against bloodstream form of Trypanosoma brucei Lister 427 assessed as parasite growth inhibition incubated for 72 hrs by resazurin staining based assay. As to conditions: Lister 427, 72 h. The format is functional, organism-based.
Data set [11] can be described thus: Selectivity index, ratio of CC50 for cytotoxicity against human THP-1 cells to IC50 for antitrypanosomal activity against bloodstream form of Trypanosoma brucei Lister 427. The format is toxicity, cell-based. The conditions noted are these: read-out: Ratio CC50/IC50.
Data set [12] deals with Leishmania infantum. The experiment in a line: Antileishmanial activity against axenic amastigote stage of Leishmania infantum infected in THP-1 cells assessed as reduction in parasite growth incubated for 72 hrs by luminescence analysis. The format is functional, organism-based. As to conditions: THP-1, 72 h.
The nature of data set [13]: Selectivity index, ratio of CC50 for cytotoxicity against human THP-1 cells to IC50 for antileishmanial activity against axenic amastigote stage of Leishmania infantum infected in THP-1 cells. As to conditions: read-out: Ratio CC50/IC50. Type of data set: toxicity, cell-based.
For data set [14], the system named is Hemozoin. The experiment in a line: Inhibition of Beta-hematin formation at 24 to 96 uM after 24 hrs by microplate reader assay. As to conditions: dose 24-96 µM.
Data set [15] deals with Plasmodium falciparum. The experiment in a line: Antiplasmodial activity against Plasmodium falciparum 3D7 infected in erythrocytes assessed as parasite growth inhibition measured after 72 hrs by LDH assay. The format is functional, organism-based. The conditions noted are these: 3D7, Erythrocyte.
For a further data set, the system named is HepG2. The experiment in a line: Cytotoxicity against human HepG2 cells. Type of data set: cell-based.

The source made the active and inactive calls. No cut-off for these calls is given here.

With `CC(C)[C@@H]1NC(=O)[C@@H](Cc2c[nH]c3ccccc23)n2c1nc1ccccc1c2=O`, the IC50 (usually the concentration at which inhibition is half-maximal) in the data set on Plasmodium falciparum [1] came out at 100 nM. In addition, the CC50 at 24 h in [2] stood at 1910 nM. The selectivity ratio in data set [3] came to 19. Further, the CC50 at 72 h in [4] is over 100 µM. Further, the inhibition result in the data set with Trypanosoma brucei [5], with Leishmania infantum [6] and in the data set on Hemozoin [9] was “inactive” each time. Further, the hemolysis at 1 h, up to 10 µM in data set [7] was under 6%. The Activity result in data set [8] was “Non-Toxic”.
Take `CC(C)C[C@@H]1NC(=O)[C@@H](Cc2c[nH]c3ccccc23)n2c1nc1ccccc1c2=O`: the IC50 in the data set on Plasmodium falciparum [1] turned out to be 50 nM. The CC50 at 24 h in data set [2] came out at 1780 nM. In data set [3], the selectivity ratio is 34. Moreover, in [4], the CC50 at 72 h was over 100 µM. Besides, the inhibition entry in the data set with Trypanosoma brucei [5], in the data set with Leishmania infantum [6] and in the data set with Hemozoin [9] was “inactive” in each case. In addition, the hemolysis at 1 h, up to 10 µM in data set [7] was under 6%. Moreover, the Activity result in data set [8] is “Non-Toxic”.
As to `CC(C)C[C@@H]1NC(=O)[C@@H](Cc2c[nH]c3ccccc23)n2c1nc1ccc(I)cc1c2=O`, the IC50 was over 10000 nM in the data set with Plasmodium falciparum [1], 4.1 µM in the data set with Trypanosoma brucei [10] and 7.4 µM with Leishmania infantum [12]. Moreover, in the data set with V79, the LD50 entry was “Not Active”. The CC50 at 72 h in data set [4] came out at 50 µM. Further, the selectivity ratio in data set [11] came to 12.2; in [13] it was 6.7.
As for `CCN(CC)CCCC(C)Nc1ccnc2cc(Cl)ccc12` (stereo not given) [CHLOROQUINE], the Activity result in data set [8] is listed as “Non-Toxic”.
Consider `CC(C)C[C@@H]1NC(=O)[C@@H](Cc2c[nH]c3ccccc23)n2c1nc1cc(Cl)c(Cl)cc1c2=O`, for which the IC50 was 200 nM in the data set on Plasmodium falciparum [1] and 5.9 µM in the data set on Trypanosoma brucei [10]. The CC50 at 24 h in data set [2] worked out at 14000 nM. Also, the selectivity ratio in [3] was 70; in data set [11], 4.2. The CC50 at 72 h in data set [4] came out at 25 µM. The inhibition entry in the data set with Leishmania infantum [6] and with Hemozoin [14] was “inactive” in each case. For the same molecule, in data set [7], the hemolysis at 1 h, up to 10 µM was under 6%. For the same molecule, the Activity entry in data set [8] is on record as “Non-Toxic”.
`Clc1ccc2nccc(N3CCC(CN4CCC(c5c[nH]c6ccccc56)CC4)CC3)c2c1`: the values for the EC50 in the data set on Plasmodium falciparum [15] and in the data set on HepG2 were 34 nM and over 10 µM, respectively.
As for `CC[C@H](C)[C@@H]1NC(=O)[C@@H](Cc2c[nH]c3ccccc23)n2c1nc1ccc(Br)cc1c2=O`, the values for the IC50 in the data set with Plasmodium falciparum [1], in the data set with Trypanosoma brucei [10] and in the data set with Leishmania infantum [12] were over 10000 nM, 5.3 µM and 7.8 µM, respectively. Also, in the data set on V79, the LD50 entry is given as “Not Active”. The CC50 at 72 h in data set [4] came out at 50 µM. Moreover, the results for the selectivity ratio in data set [11] and in data set [13] were 9.4 and 6.4, respectively.

(Values after ChEMBL document CHEMBL5036370, “Indole-Containing Pyrazino[2,1-b]quinazoline-3,6-diones Active against Plasmodium and Trypanosomatids” (ACS Med Chem Lett, 2022).)
